Results: patent US6043274A, “Method of treating diabetic cardiomyopathy” (priority 1999, dated 2000)

Experiments:
mice = details: intravenously; cited from earlier work
dogs = details: intravenously; cited from earlier work
[1] = system: aldose reductase (human recombinant, expressed in SF 9 cells); assay: Aldose reductase assay, NADPH dependent reduction of glyceraldehyde; type: biochemical; details: glyceraldehyde as substrate, 37° C., plot only, no value given
Method: Aldose reductase assays were as described in Nishimura C., Yamaoka T., Mizutani M., Yamashita K., Akera T., Tanimoto T., Purification And Characterization Of The Recombinant Human Aldose Reductase Expressed In Baculovirus System, Biochem. Biophys. Acta, Jun. 24, 1991; 1078(2):171-8.
Briefly, Dimesna (0-20 μM) was incubated at 37° C. with aldose reductase (0.0016 units, human recombinant, expressed in SF 9 cells) and NADPH (0.15 mM) in sodium phosphate buffer (100 mM, pH 6.2). To initiate assays, glucose (10-150 mM) was added to reactions and the decrease in absorbance at 340 nm (oxidation of NADPH) was monitored. Assays were run in duplicate or triplicate. Slopes were calculated using Varian-Cary software package 2.0 and averaged. In all cases errors were 4% or less. Lineweaver Burk analysis (Enzyme Kinetics, version 1.61) was used to calculate inhibition constants.
Aldose reductase assays were as described above. Dimesna (0-30 mM) was evaluated for its effect on the NADPH dependent reduction of glyceraldehyde (0.050-6 mM) to aldose at 37° C. Assays were run in duplicate or triplicate. Slopes were calculated using Varian-Cary software package 2.0 and averaged. In all cases errors were 4% or less. Lineweaver Burk analysis (Enzyme Kinetics, version 1.61) was used to calculate inhibition constants.

diabetic retinopathy = details: humans, mainly in the 1980s; cited from earlier work

Compound	dose administered with no adverse effects (mice) [mg/kg]	dose administered with no adverse effects (dogs) [mg/kg]	Inhibition of Aldose Reductase (Lineweaver Burk plot) [1]	efficacy in slowing the progress of diabetic retinopathy (diabetic retinopathy)	tolerability in patients (diabetic retinopathy)
O=S(=O)([O-])CCSSCCS(=O)(=O)[O-].[Na+].[Na+] [Dimesna, disodium 2,2'-dithiobis ethane sulfonate]	> 3750	> 3750	Inhibition	–	–
O=C1NC(=O)[C@@]2(CCOc3ccc(F)cc32)N1 [sorbinil]	–	–	–	some efficacy	not well tolerated
